Assay results reported in PubChem BioAssay AID1259407 (Chemical Carcinogenesis Research Information System (CCRIS), 2018).
Activity calls are given as the source filed them. No rule for the calls is given here.

Tested on: CCRIS mutagenicity, Ames/micronucleus/aberration tests
Experiment: CCRIS mutagenicity studies
[1] = Test System: AMES SALMONELLA TYPHIMURIUM, Strain/Indicator: TA98, Metabolic Activation: NONE, Method: PREINCUBATION
[2] = Test System: AMES SALMONELLA TYPHIMURIUM, Strain/Indicator: TA98, Metabolic Activation: RAT, LIVER, S-9, AROCLOR 1254, Method: STANDARD PLATE
[3] = Test System: AMES SALMONELLA TYPHIMURIUM, Strain/Indicator: TA100, Metabolic Activation: NONE, Method: PREINCUBATION
[4] = Test System: AMES SALMONELLA TYPHIMURIUM, Strain/Indicator: TA100, Metabolic Activation: RAT, LIVER, S-9, AROCLOR 1254, Method: PREINCUBATION
[5] = Test System: AMES SALMONELLA TYPHIMURIUM, Strain/Indicator: TA100, Metabolic Activation: RAT, LIVER, S-9, AROCLOR 1254, Method: STANDARD PLATE
[6] = Test System: AMES SALMONELLA TYPHIMURIUM, Strain/Indicator: TA1535, Metabolic Activation: NONE, Method: PREINCUBATION
[7] = Test System: AMES SALMONELLA TYPHIMURIUM, Strain/Indicator: TA100, Metabolic Activation: NONE, Method: STANDARD PLATE
[8] = Test System: AMES SALMONELLA TYPHIMURIUM, Strain/Indicator: TA1535, Metabolic Activation: NONE, Method: STANDARD PLATE

CC(=O)c1c(C)c([N+](=O)[O-])c(C(C)(C)C)c([N+](=O)[O-])c1C
mutagenic call (Test System: AMES SALMONELLA TYPHIMURIUM, Strain/Indicator: TA97, Metabolic Activation: HAMSTER, LIVER, S-9, AROCLOR 1254 (10 OR 30%), Method: PREINCUBATION): inactive; negative
mutagenic call (Test System: AMES SALMONELLA TYPHIMURIUM, Strain/Indicator: TA97, Metabolic Activation: NONE, Method: PREINCUBATION): inactive; negative
mutagenic call (Test System: AMES SALMONELLA TYPHIMURIUM, Strain/Indicator: TA97, Metabolic Activation: RAT, LIVER, S-9, AROCLOR 1254 (10 OR 30%), Method: PREINCUBATION): inactive; negative
mutagenic call (Test System: AMES SALMONELLA TYPHIMURIUM, Strain/Indicator: TA98, Metabolic Activation: HAMSTER, LIVER, S-9, AROCLOR 1254 (10 OR 30%), Method: PREINCUBATION): inactive; negative
mutagenic call [1]: inactive; negative
mutagenic call (Test System: AMES SALMONELLA TYPHIMURIUM, Strain/Indicator: TA98, Metabolic Activation: RAT, LIVER, S-9, AROCLOR 1254 (10 OR 30%), Method: PREINCUBATION): inactive; negative
mutagenic call (Test System: AMES SALMONELLA TYPHIMURIUM, Strain/Indicator: TA98, Metabolic Activation: RAT, LIVER, S-9, AROCLOR 1254, Method: PREINCUBATION): inactive; negative
mutagenic call [2]: inactive; negative
mutagenic call (Test System: AMES SALMONELLA TYPHIMURIUM, Strain/Indicator: TA100, Metabolic Activation: HAMSTER, LIVER, S-9, AROCLOR 1254 (10 OR 30%), Method: PREINCUBATION): inactive; negative
mutagenic call [3]: inactive; negative
mutagenic call (Test System: AMES SALMONELLA TYPHIMURIUM, Strain/Indicator: TA100, Metabolic Activation: RAT, LIVER, S-9, AROCLOR 1254 (10 OR 30%), Method: PREINCUBATION): inactive; negative
mutagenic call [4]: inactive; negative
mutagenic call [5]: inactive; negative
mutagenic call (Test System: AMES SALMONELLA TYPHIMURIUM, Strain/Indicator: TA1535, Metabolic Activation: HAMSTER, LIVER, S-9, AROCLOR 1254 (10 OR 30%), Method: PREINCUBATION): inactive; negative
mutagenic call [6]: inactive; negative
mutagenic call (Test System: AMES SALMONELLA TYPHIMURIUM, Strain/Indicator: TA1535, Metabolic Activation: RAT, LIVER, S-9, AROCLOR 1254 (10 OR 30%), Method: PREINCUBATION): inactive; negative
mutagenic call (Test System: MOUSE LYMPHOMA, Strain/Indicator: L5178Y (TK+/TK-), Metabolic Activation: NONE, Method: SUSPENSION/PLATE): inactive; negative
mutagenic call (Test System: MOUSE LYMPHOMA, Strain/Indicator: L5178Y (TK+/TK-), Metabolic Activation: RAT, LIVER, S-9, AROCLOR 1242 AND AROCLOR 1254 (2:1), Method: SUSPENSION/PLATE): inactive; negative
mutagenic call (Test System: UDS RAT PRIMARY HEPATOCYTES, Strain/Indicator: THY INCORP, Metabolic Activation: NONE): inactive; negative

C1=COc2c(c3cc4ccccc4cc3c3ccccc23)C=C1
mutagenic call [4]: active; positive

CC1=CC(=O)C=CC1=O
mutagenic call [1]: inactive; negative
mutagenic call (Test System: AMES SALMONELLA TYPHIMURIUM, Strain/Indicator: TA98, Metabolic Activation: RAT, LIVER, S-9, PHENOBARBITAL AND 5,6-BENZOFLAVONE, Method: PREINCUBATION): inactive; negative
mutagenic call [3]: inactive; negative
mutagenic call (Test System: AMES SALMONELLA TYPHIMURIUM, Strain/Indicator: TA102, Metabolic Activation: NONE, Method: PREINCUBATION): inactive; negative
mutagenic call (Test System: AMES SALMONELLA TYPHIMURIUM, Strain/Indicator: TA102, Metabolic Activation: RAT, LIVER, S-9, PHENOBARBITAL AND 5,6-BENZOFLAVONE, Method: PREINCUBATION): inactive; negative
mutagenic call (Test System: AMES SALMONELLA TYPHIMURIUM, Strain/Indicator: TA104, Metabolic Activation: NONE, Method: PREINCUBATION): inactive; negative
mutagenic call (Test System: AMES SALMONELLA TYPHIMURIUM, Strain/Indicator: TA104, Metabolic Activation: RAT, LIVER, S-9, PHENOBARBITAL AND 5,6-BENZOFLAVONE, Method: PREINCUBATION): inactive; negative
mutagenic call (Test System: AMES SALMONELLA TYPHIMURIUM, Strain/Indicator: TA2637, Metabolic Activation: NONE, Method: PREINCUBATION): inactive; negative
mutagenic call (Test System: AMES SALMONELLA TYPHIMURIUM, Strain/Indicator: TA2637, Metabolic Activation: RAT, LIVER, S-9, PHENOBARBITAL AND 5,6-BENZOFLAVONE, Method: PREINCUBATION): active; positive

O=C1C(Cl)=C(Cl)C(=O)C1(Cl)Cl
mutagenic call [7]: inactive; negative

CN=[N+](C)[O-]
mutagenic call (Test System: AMES SALMONELLA TYPHIMURIUM, Strain/Indicator: TA100, Metabolic Activation: RAT, LIVER, S-9, KC500 OR PHENOBARBITAL, Method: LIQUID SUSPENSION): active; positive
mutagenic call (Test System: AMES SALMONELLA TYPHIMURIUM, Strain/Indicator: TA1535, Metabolic Activation: HAMSTER, LIVER, S-9, AROCLOR 1254, Method: PREINCUBATION): inactive; negative
mutagenic call [6]: inactive; negative
mutagenic call [8]: inactive; negative
mutagenic call (Test System: AMES SALMONELLA TYPHIMURIUM, Strain/Indicator: TA1535, Metabolic Activation: RAT, LIVER, S-9, AROCLOR 1254, Method: PREINCUBATION): inactive; negative
mutagenic call (Test System: AMES SALMONELLA TYPHIMURIUM, Strain/Indicator: TA1535, Metabolic Activation: RAT, LIVER, S-9, KC500 OR PHENOBARBITAL, Method: LIQUID SUSPENSION): active; positive
mutagenic call (Test System: AMES SALMONELLA TYPHIMURIUM, Strain/Indicator: YG7108, Metabolic Activation: NONE, Method: STANDARD PLATE): active; positive
mutagenic call (Test System: E. COLI, Strain/Indicator: WP2 UVRA, Metabolic Activation: HAMSTER, LIVER, S-9, AROCLOR 1254, Method: PREINCUBATION): inactive; negative
mutagenic call (Test System: E. COLI, Strain/Indicator: WP2 UVRA, Metabolic Activation: HAMSTER, LIVER, S-9, Method: PREINCUBATION): inactive; negative
mutagenic call (Test System: E. COLI, Strain/Indicator: WP2 UVRA, Metabolic Activation: MOUSE, LIVER, S-9, AROCLOR 1254, Method: PREINCUBATION): inactive; negative
mutagenic call (Test System: E. COLI, Strain/Indicator: WP2 UVRA, Metabolic Activation: MOUSE, LIVER, S-9, Method: PREINCUBATION): inactive; negative
mutagenic call (Test System: E. COLI, Strain/Indicator: WP2 UVRA, Metabolic Activation: NONE, Method: PREINCUBATION): inactive; negative
mutagenic call (Test System: E. COLI, Strain/Indicator: WP2 UVRA, Metabolic Activation: RAT, LIVER, S-9, AROCLOR 1254, Method: PREINCUBATION): inactive; negative
mutagenic call (Test System: E. COLI, Strain/Indicator: WP2 UVRA, Metabolic Activation: RAT, LIVER, S-9, Method: PREINCUBATION): inactive; negative

CCCCCN(CCCCO)N=O
mutagenic call (Test System: AMES SALMONELLA TYPHIMURIUM, Strain/Indicator: TA1535, Metabolic Activation: RAT, LIVER, S-9, KANECHLOR 500 OR PHENOBARBITAL, Method: LIQUID SUSPENSION): active; positive

CS(=O)(=O)n1ncc(Cl)c(Cl)c1=O
mutagenic call (Test System: AMES SALMONELLA TYPHIMURIUM, Strain/Indicator: TA98, Metabolic Activation: NONE, Method: STANDARD PLATE): inactive; negative
mutagenic call [2]: inactive; negative
mutagenic call [7]: active; positive
mutagenic call [5]: active; positive
mutagenic call [8]: inactive; negative
mutagenic call (Test System: AMES SALMONELLA TYPHIMURIUM, Strain/Indicator: TA1535, Metabolic Activation: RAT, LIVER, S-9, AROCLOR 1254, Method: STANDARD PLATE): inactive; negative
mutagenic call (Test System: AMES SALMONELLA TYPHIMURIUM, Strain/Indicator: TA1537, Metabolic Activation: NONE, Method: STANDARD PLATE): inactive; negative
mutagenic call (Test System: AMES SALMONELLA TYPHIMURIUM, Strain/Indicator: TA1537, Metabolic Activation: RAT, LIVER, S-9, AROCLOR 1254, Method: STANDARD PLATE): inactive; negative
